Measured values taken from paper PMC12821709, “Biomimetic Chromatography as a High-Throughput Tool for Screening Bioaccumulation and Acute Aquatic Toxicity of Pesticides” (Journal of Xenobiotics, 2025).
Converted amounts (≈) assume the structure as drawn. Where two headings read alike, the source gives them in different places.

Assays:
Daphnia magna = settings: cited from earlier work
[1] = assay type: physicochemical
Protocol: All biochromatographic experiments were performed using the gradient IAM protocols developed by Valkó and co-workers and previously implemented in this laboratory. Analyses were carried out on a Prominence-i LC-2030C 3D HPLC system (Shimadzu, Tokyo, Japan) controlled by LabSolutions software (v6.81, Kyoto, Japan) and equipped with an IAM.PC.DD2 column (10 × 4.6 mm, 10.0 µm) packed on the newer ‘Type B’ silica support and protected by a guard column (Regis Technologies, Morton Grove, IL, USA).
Mobile phase A consisted of 50 mM ammonium acetate (VWR International, Leuven, Belgium) in water, adjusted to physiological pH 7.4 with concentrated ammonia solution (Avantor Performance Materials Poland S.A., Gliwice, Poland). Ultrapure water with a resistivity of 18.2 MΩ was obtained from a Milli-Q water purification system (Merck Millipore, Darmstadt, Germany). For phospholipid affinity measurements, mobile phase B was HPLC-grade acetonitrile (Chempur, Piekary Śląskie, Poland). A linear gradient from 0 to 85% B was applied over 5.25 min, followed by an isocratic hold at 85% B for 0.5 min. The mobile phase flow rate was set at 1.5 mL/min, and the column temperature was maintained at 30 °C.
The reference substances used to calculate CHIIAM values were obtained as follows: acetanilide, butyrophenone and octanophenone from Alfa Aesar (Haverhill, MA, USA); acetophenone and paracetamol from Sigma-Aldrich (Steinheim, Germany); and heptanophenone, hexanophenone, propiophenone and valerophenone from Acros Organics (Pittsburgh, PA, USA).
Dimethyl sulfoxide (Avantor Performance Materials Poland S.A., Gliwice, Poland) was used to dissolve the analytes and to prepare stock solutions at a concentration of 200 µg/mL. UV detection was performed in the range 190–300 nm. The injection volume was 5 µL. Each compound was analyzed in duplicate, and the variation in retention times was lower than 2%. Raw retention times for the pesticides and reference standards are available in Zenodo platform https://doi.org/10.5281/zenodo.17672582.

[2] = system: rainbow trout (Oncorhynchus mykiss); settings: 96 h, ref Pesticide Properties DataBase (PPDB; University of Hertfordshire), cited from earlier work
fish = settings: cited from earlier work
[3] = 48 h, Daphnia magna, ref Pesticide Properties DataBase (PPDB; University of Hertfordshire)
[4] = IAM.PC.DD2 column, gradient 0-85% acetonitrile, 50 mM ammonium acetate pH 7.4, 30 °C
[5] = in fish, dimensionless, ref Pesticide Properties DataBase (PPDB; University of Hertfordshire)

SMILES | EC50 Daphnia (Daphnia magna; [3]) [ng/mL] | CHIIAM (IAM chromatographic hydrophobicity index) [1, 4] | LC50 Fish [2] [µg/mL] | BCF (bioconcentration factor) (fish; [5]) | further results
Cc1c(COC(=O)[C@@H]2[C@H](/C=C(\Cl)C(F)(F)F)C2(C)C)cccc1-c1ccccc1 (racemic) [Bifenthrin, bifenthrin] | 0.11 (≈ 0.00026 µM) | 54.4 | 0.00026 (≈ 0.000615 µM) | 1703 | CHIIAM (IAM chromatographic hydrophobicity index) ([1]; IAM.PC.DD2 column, gradient 0-85% acetonitrile, 50 mM ammonium acetate pH 7.4, 30 °C, listed as bifenthrin): > 48; LC50 Fish ([2]; listed as bifenthrin): ≈ 0.00026 mg/L
C/C(=N\C#N)N(C)Cc1ccc(Cl)nc1 [Acetamiprid, acetamiprid] | 49800 (≈ 224 µM) | 13.4 | 100 (≈ 449 µM) | – | –
CCNc1nc(Cl)nc(NC(C)C)n1 [Atrazine, atrazine] | 85000 (≈ 394 µM) | 27.4 | 4.5 (≈ 20.9 µM) | 4.3 | EC50 Daphnia (Daphnia magna; 48 h, Daphnia magna, ref Pesticide Properties DataBase (PPDB; University of Hertfordshire), listed as atrazine): ≈ 85 mg/L
COP(=S)(OC)SCn1nnc2ccccc2c1=O [Azinphos-methyl, azinphos-methyl] | 1.1 (≈ 0.00347 µM) | – | – | 40 | –
CO/C=C(/C(=O)OC)c1ccccc1Oc1cc(Oc2ccccc2C#N)ncn1 [Azoxystrobin, azoxystrobin] | 230 (≈ 0.57 µM) | 31.6 | 0.47 (≈ 1.17 µM) | – | –
O=C(Nc1ccccc1-c1ccc(Cl)cc1)c1cccnc1Cl [Boscalid, boscalid] | 5330 (≈ 15.5 µM) | 38.0 | 2.7 (≈ 7.87 µM) | 107 | BCF (bioconcentration factor) (fish; in fish, dimensionless, ref Pesticide Properties DataBase (PPDB; University of Hertfordshire), listed as boscalid): ≈ 107
CNC(=O)Oc1cccc2ccccc12 [Carbaryl, carbaryl] | 6.4 (≈ 0.0318 µM) | – | – | 44 | EC50 Daphnia (Daphnia magna; 48 h, Daphnia magna, ref Pesticide Properties DataBase (PPDB; University of Hertfordshire), listed as carbaryl): ≈ 0.0064 mg/L
CCOP(=S)(OCC)Oc1nc(Cl)c(Cl)cc1Cl [Chlorpyrifos, chlorpyrifos] | 0.1 (≈ 0.000285 µM) | 48.1 | 0.025 (≈ 0.0713 µM) | 1374 | EC50 Daphnia (Daphnia magna; 48 h, Daphnia magna, ref Pesticide Properties DataBase (PPDB; University of Hertfordshire), listed as chlorpyrifos): 0.1 to 1 ng/mL
CCOP(=S)(OCC)Oc1cc(C)nc(C(C)C)n1 [Diazinon, diazinon] | 1 (≈ 0.00329 µM) | 39.3 | 3.1 (≈ 10.2 µM) | 500 | EC50 Daphnia (Daphnia magna; 48 h, Daphnia magna, ref Pesticide Properties DataBase (PPDB; University of Hertfordshire), listed as diazinon): 0.1 to 1 ng/mL
COc1c(Cl)ccc(Cl)c1C(=O)O [Dicamba, dicamba] | – | – | 100 (≈ 452 µM) | – | EC50 Daphnia (Daphnia magna; in vivo): 41000 ng/mL (≈ 185 µM); CHIIAM (IAM chromatographic hydrophobicity index) ([1]; pH 7.4): 8.2; BCF (bioconcentration factor) (fish; in vivo): 15
COP(=S)(OC)Oc1ccc([N+](=O)[O-])c(C)c1 [Fenitrothion, fenitrothion] | 8.6 (≈ 0.031 µM) | 38.1 | 1.3 (≈ 4.69 µM) | 29 | –
CC1(C)C(C(=O)OC(C#N)c2cccc(Oc3ccccc3)c2)C1(C)C (stereo not drawn) [Fenpropathrin, fenpropathrin] | 0.53 (≈ 0.00152 µM) | 48.6 | 0.0023 (≈ 0.00658 µM) | 1100 | LC50 Fish ([2]; listed as fenpropathrin): ≈ 0.0023 mg/L
N#Cc1c[nH]cc1-c1cccc2c1OC(F)(F)O2 [Fludioxonil, fludioxonil] | 400 (≈ 1.61 µM) | 43.5 | 0.23 (≈ 0.927 µM) | 336 | –
CC(C)C1(C)N=C(c2ncccc2C(=O)O)NC1=O (stereo not drawn) [Imazapyr, imazapyr] | 100000 (≈ 383 µM) | −12.1 | 100 (≈ 383 µM) | 2.54 | EC50 Daphnia (Daphnia magna; 48 h, Daphnia magna, ref Pesticide Properties DataBase (PPDB; University of Hertfordshire), listed as imazapyr): ≈ 100 mg/L
O=[N+]([O-])NC1=NCCN1Cc1ccc(Cl)nc1 [Imidacloprid, imidacloprid] | 85000 (≈ 332 µM) | 14.2 | 83 (≈ 325 µM) | 0.61 | BCF (bioconcentration factor) (fish; in fish, dimensionless, ref Pesticide Properties DataBase (PPDB; University of Hertfordshire), listed as imidacloprid): ≈ 0.6
CC1(C)C(C=C(Cl)Cl)C1C(=O)OCc1cccc(Oc2ccccc2)c1 (stereo not drawn) [Permethrin, permethrin] | 0.6 (≈ 0.00153 µM) | 54.8 | 0.0125 (≈ 0.0319 µM) | 300 | –
CCCC1COC(Cn2cncn2)(c2ccc(Cl)cc2Cl)O1 (stereo not drawn) [Propiconazole, propiconazole] | 10200 (≈ 29.8 µM) | 38.7 | 2.6 (≈ 7.6 µM) | 116 | –
CC(C)(C)C(O)(CCc1ccc(Cl)cc1)Cn1cncn1 (stereo not drawn) [Tebuconazole, tebuconazole] | 2790 (≈ 9.06 µM) | 39.5 | 4.4 (≈ 14.3 µM) | 78 | –
CCNc1nc(Cl)nc(NC(C)(C)C)n1 [Terbuthylazine, terbuthylazine] | 21200 (≈ 92.3 µM) | 34.3 | 2.2 (≈ 9.58 µM) | 34 | BCF (bioconcentration factor) (fish; in fish, dimensionless, ref Pesticide Properties DataBase (PPDB; University of Hertfordshire), listed as terbuthylazine): ≈ 34
